The text below walks through data of a melting point compilation (Tetko et al.; mined from patent text by program, amines drawn as free bases though some values may be those of a salt).

Structures are written as SMILES.

In general, melting point refers to the temperature of the solid-liquid transition.

In turn, `COc1ccc(S(=O)(=O)Nc2cccc(C)c2NC(=O)c2ccc(F)cc2)cc1` yielded a melting point of 204 to 206 °C.
In the case of `Nc1nnc(Sc2ccccc2)s1` it was 202 to 203 °C.
On to `CCN(CC)C(=O)c1nc[nH]n1`, for which the melting point lay in the range of 173 to 174 °C.
In turn, `O=C(O)c1ccc(NC(c2ccc(Cl)cc2)c2ccc(Cl)cc2)cc1` yielded a melting point of 245 to 247 °C.
Under `COC1C=C(C)C(=O)CC(C)(C)C1OC(=O)c1ccc(N)cc1` (stereo not drawn) stands 138 to 161 °C.
In the case of `COc1cc(OC)nc(C2(C#N)OC(=O)c3c(-c4ccccc4)ccnc32)n1` (stereo not drawn) it was 196 to 198 °C.
Under `CC(=O)C1=C(O)C(=C(C)Nc2ccc(OC(N)=O)cc2)C(=O)OC1=O` stands 213 to 215 °C; under `CCOC(=O)NCCS(=O)CC(=O)O` (stereo not drawn), 93.1 to 94.1 °C.
Turning to `COc1nc(C)nc(NC(=O)NS(=O)(=O)c2cccnc2Oc2ccccc2)n1`, the melting point was in the range of 176 to 178 °C.
In the case of `COc1cc2c(cc1O)CCN(Cc1ccc(OC)c(OC)c1)C2` it was 146 to 147 °C; in that of `Cn1nc(-c2cc(O)c(Cl)cc2F)c(Cl)c1C(F)(F)F`, 123 to 126 °C; in that of `O=Cc1ccc(-c2ccc(O)cc2)c2ccoc12`, 184 to 185 °C.
Under `O=C(NC(SC(=O)c1ccccc1)C(=O)N1CCCC1C(=O)O)c1ccccc1` (stereo not drawn) stands 202 to 205 °C.
`Fc1c(Cl)cccc1Br`: the melting point came to 43 °C.
For the compound `COC(=O)c1nc2cc(Cl)c(OC)c(Cl)c2c(O)c1C(=O)OC`, the melting point lay in the range of 210 to 211 °C.
In the case of `Cc1csc2nc(-c3ccc(C(=O)O)cc3)nc(Cc3ccc4c(c3)OCO4)c12` it was 250 °C; in that of `CC(c1oc2ccccc2c(=O)c1-c1cccc(F)c1)n1nc(-c2ccc3cc[nH]c3c2)c2c(N)ncnc21` (stereo not drawn), 222 to 225 °C; in that of `CS(=O)(=O)c1ccc2c(c1)[C@@H](Oc1ccc(C#N)cc1Cl)[C@H](N1CCC[C@@H](N)C1)C2`, 162 °C.
For the compound `Cc1cccc(CSc2nc3cnccc3[nH]2)c1`, the melting point is 166 to 168 °C.
Under `CC[C@H](C)[C@@H](CO)NC(=O)C[C@H](O)[C@H](CC(C)C)NC(=O)[C@H](CC(C)C)NC(=O)[C@H](Cc1cccc2ccccc12)NC(=O)OCc1ccccc1` stands 206 to 212 °C.
Under `O=C(O)CCCNC(=O)c1n[nH]cc1NC(=O)c1ccccn1` stands 227 to 228 °C.
Compound `CSc1ncc(Cc2ccc(C)nc2)c(=O)[nH]1` displayed a melting point of 197 to 198 °C.
In the case of `COc1ccc(Nc2nc(NC3CCCCCC3)nc(OCC3CCCN3)n2)cc1Cl` (stereo not drawn) it was 84 to 86 °C.
As for `CC(C)=CCCC(C)=CCOc1ccc(C(=O)NCCNc2cccnc2)cc1`, the melting point was 88.5 to 89.2 °C.
In the case of `CC(C)C(NC(=O)OCc1nccs1)C(=O)NC(Cc1ccccc1)C(O)C(Cc1ccccc1)NC(=O)C(NC(=O)OCc1nccs1)C(C)C` (stereo not drawn) it was 92 to 93 °C; in that of `CCCc1nn(C)c2c(=O)[nH]c(Cc3ccc(C(=O)O)cc3)nc12`, 292 to 293 °C.
In the case of `O=C1N(c2ccccc2)CCN1C1CCNCC1` it was 123 to 124 °C; in that of `O=S(=O)(NS(=O)(=O)c1ccc(CCBr)cc1)c1ccccc1`, 148 to 150 °C.
Under `COC(=O)c1sc2c(c1O)CSC2` stands 133 to 137 °C.
For `Cc1ccc(F)cc1C(=O)Nc1ccc(C(=O)N2Cc3ccccc3Nc3ncccc32)cn1`, the melting point lay within 102 to 104 °C.
Under `COC(=O)C1C(C)=NC(N2CCCC2)=C(C(=O)OC(C)C)C1c1cccc([N+](=O)[O-])c1` (stereo not drawn) stands 140 °C; under `CC(C)(C)OC(=O)Nc1ccc(-c2ccco2)cc1[N+](=O)[O-]`, 169 to 172 °C; under `COC(=O)c1ccc(OCCNC(=O)C2Cc3ccccc3N2S(=O)(=O)c2ccc(-c3ccc(F)cc3)cc2)cc1` (stereo not drawn), 70 to 72 °C.
The compound `Cc1cc(NCCO)c(N)c([N+](=O)[O-])c1` had a melting point of 166 °C.
In the case of `COc1cc(-c2nc3cnc(OC[C@H](C)NC(C)=O)cc3o2)cc(F)c1OCC1CC1` it was 163 °C; in that of `ON=C1c2ccccc2-c2c1c(N1CCN(c3ccccn3)CC1)nc1ccc(Br)cc21`, 235 to 237 °C; in that of `COc1nc(C)cnc1NS(=O)(=O)c1cccnc1-c1ccc(COC(C)C)cc1`, 123 to 124 °C.
Turning to `CC(=O)Nc1ccc2c(c1)c(C1=C(c3cn(C)c4ccccc34)C(=O)NC1=O)cn2C`, the melting point lay in the range of 276 to 279 °C.
On to `C#Cc1ccc2c(c1)C=C(C(=O)O)C(C(F)(F)F)O2` (stereo not drawn), for which the melting point lay in the range of 198 to 200 °C.
Under `COc1cncc(OC)c1CCCOc1cccnc1Oc1cccc(Br)c1` stands 106 to 154 °C; under `NS(=O)(=O)c1ccccc1CCC(F)(F)F`, 148 to 149 °C; under `CC(C#N)(COc1cc(F)c(F)cc1-c1ccsc1)NC(=O)c1ccc(OC(F)(F)F)cc1` (stereo not drawn), 128 to 130 °C.
`O=S(=O)(Nc1cccc2cc(C3=NCCS3)[nH]c12)c1cccs1` gave a melting point of 189 to 190 °C.
In the case of `CCCc1c(N)ccc2c(=O)cc(C(=O)OCC)oc12` it was 84 to 87 °C; in that of `CN1CCc2cc(NC(=O)/C=C/c3ccc(C(C)(C)C)cc3)ccc21`, 194 °C.
In the case of `O=C(CC12CC3CC(CC(C3)C1)C2)Nc1ccc2[nH]ccc2c1` it was 184 to 185 °C; in that of `Cc1cc(NS(=O)(=O)c2cccs2)c2[nH]c(C(=O)NCCSC(c3ccccc3)(c3ccccc3)c3ccccc3)cc2c1`, 214 to 215 °C.
In the case of `CN1CC(=O)N(c2cc(Cl)nc(Cl)c2)C1=O` it was 134 °C; in that of `COc1cc(COc2ccc3nc(NC(=O)Oc4ccccc4)cn3n2)cc(OC)c1OC`, 210 to 213 °C.
Compound `COc1ccc(S(=O)(=O)Nc2ccccc2Cl)cc1OC1CCCC1` came in with a melting point of 113 to 115 °C.
In the case of `CN1CCN(c2ccc3nc(N)c(C#N)c(Cl)c3c2)CC1` it was 189 °C; in that of `Cc1nc(-c2ccc(NC(=O)OCc3ccccc3)cc2)c[nH]c1=O`, 238 to 240 °C; in that of `NCc1ccc(CO)cc1`, 102 to 123 °C.
Under `O=C(Cc1ccc([N+](=O)[O-])cc1)c1ccc([N+](=O)[O-])cc1` stands 131 to 133 °C; under `Cc1cc(C)c(-c2cc3cnc(N)nc3nc2N)c(C)c1`, 276 to 282 °C; under `CC(C)(C)OC(=O)COc1coc(CO)cc1=O`, 90 to 92 °C.
In the case of `Clc1ccc(CO[C@H]2CO[C@@H](c3ccccc3)OC2)cc1` it was 116 to 117 °C.
On to `Cc1ccccc1C1(CNC(=O)Nc2c(C(C)C)cccc2C(C)C)CCCC1`, for which the melting point was in the range of 147 to 150 °C.
Take `CC(C)(C)NCCCS(=O)(=O)O`: the melting point was above 280 °C.
Take `O=C(NC1CCCCC1=Cc1ccccc1)C(F)(F)F` (stereo not drawn): the melting point is 109 to 110 °C.
In turn, `O=C(O)c1cc2c(s1)S(=O)(=O)CC2` displayed a melting point of 227 to 230 °C.
Compound `Ic1ccc2c3c(cccc13)C(=NCc1ccccc1)N2` returned a melting point of 160 to 163 °C.
Under `COc1ccc(Cl)c(S(=O)(=O)NC(=O)c2cn3cc(C(F)(F)F)ncc3n2)c1` stands 236 to 237 °C.
